Experimental data taken from PMC7822874, “Chemoprotective antimalarials identified through quantitative high-throughput screening of Plasmodium blood and liver stage parasites” (Scientific Reports, 2021).
Where two headings read alike, the source gives them in different places.

System: Plasmodium falciparum Dd2 asexual blood stage parasites
Assay: microbe, parasite or virus in culture
Set-up: species or system Plasmodium falciparum Dd2 in human erythrocytes; single determination (one 11-point concentration-response curve)
Details: Plasmodium falciparum, DD2, Erythrocyte, 72 h

Structure (SMILES) | AC50 (read-out: AC50) [µM] | AC50 [µM]
Cc1nc(CN2C(=O)OC3(CCN(C(=O)Cc4ccc5c(c4)OCO5)CC3)C2(C)c2ccccc2)cs1 (stereo not shown) [NCGC00415487-01] | 2.11 | –
Cc1ccccc1N(C)C1CN(Cc2ccc(C#N)cc2)C1 [NCGC00476680-01] | 3.85 | –
O=C(C1CC1)N1CCc2cc(Br)cc([S+](=O)([O-])N3CCN(c4cccc(C(F)(F)F)c4)CC3)c21 [NCGC00104294-01] | 4.73 | –
CNc1cc(C)nc(-n2nc(C)cc2C)n1 [MLS000079642-01] | 8.41 | –
Cc1ccc(-c2nnc(Nc3ccc(O)cc3)c3ccccc23)cc1[S+](=O)([O-])N1CCN(C)CC1 [NCGC00099994-01] | 6.68 | –
O=C1NC(=O)/C(=C\c2ccc(N3CCOCC3)o2)N1 [MLS000724369-01] | 9.44 | –
Cc1ccc(CN2CCCC(Cc3ncc(C)n3Cc3ccccc3)C2)o1 (stereo not shown) [NCGC00469705-01] | 9.44 | –
CCOC(=O)c1sc(NC(=O)C2c3ccccc3Oc3ccccc32)c(C(=O)OCC)c1C [NCGC00100913-01] | 2.66 | –
COc1cccc(NC(=O)c2sc3nc(C)c(C(=O)Nc4ccc(C)cc4C)c(-c4cccs4)c3c2N)c1 [NCGC00107008-01] | 5.96 | –
CC1=C[C@@H](CN2CCC(C)CC2)[C@H](C(C)C)C[C@H]1Cc1nnc(-c2cccnc2)o1 [NCGC00421463-01] | 15.3 | –
COCC1CN(Cc2cccc(C(F)(F)F)c2)CC12CCNCC2 (stereo not shown) [NCGC00461834-01] | 7.5 | –
Oc1ccccc1-c1cc(C2=CCOCC2)c2cncn2c1 [NCGC00412161-01] | 9.68 | –
COc1cccc(Nc2ccc3c(n2)C(C)(C(=O)N2CCN(C)CC2)CN(C)C3)c1 (stereo not shown) [NCGC00414535-01] | 15.3 | –
CCCCc1cc(=O)oc2cc(C)cc(OCC(=O)Nc3cccnc3)c12 [MLS001160046-01] | 0.596 | –
COc1cccc(CN2C(=O)OC3(CCN(Cc4ccc5c(c4)CCO5)CC3)C2(C)c2cccnc2)c1 (stereo not shown) [NCGC00415555-01] | 4.73 | –
CN1CCCC1CCNS(=O)(=O)c1ccc(Br)cc1 (stereo not shown) [MLS000549971-01] | 5.96 | –
CCCn1c(=N)c(C(=O)NC2CCCC2)cc2c(=O)n3cccc(C)c3nc21 [NCGC00100358-01] | 5.96 | –
Cc1cc([N+](=O)[O-])ccc1NC(=O)COc1nsnc1N1CCOCC1 [MLS000950344-01] | 6.68 | –
CCOc1ccc(/C=C/C(=O)Nc2ccc3nc(N(CC)CC)cc(C)c3c2)cc1OC [NCGC00104284-01] | 1.88 | –
O=C(CC(c1ccc(F)cc1)c1cn(Cc2ccccc2)c2ccc([N+](=O)[O-])cc12)N1CCOCC1 (stereo not shown) [NCGC00473380-01] | 9.44 | –

Structure (SMILES) | AC50 (read-out: AC50) [µM] | AC50 [µM]
CCOC(=O)N1CCc2c(sc3c2c(=O)n(Cc2ccccc2)c(=O)n3Cc2ccccc2Cl)C1 [NCGC00111943-01] | 4.73 | –
COc1cccc(-c2nn3c(=O)cc(CN4CCN([S+](=O)([O-])c5ccc(C)cc5)CC4)nc3s2)c1 [NCGC00134088-01] | 8.41 | –
COc1ccccc1NCc1cc(=O)oc2c(C)c(O)ccc12 [MLS001175266-01] | 5.96 | –
COc1ccc(CN2CCC3(C2)C(NC2CCCCC2)=NC(=O)N3c2cccnc2)cc1 (stereo not shown) [NCGC00374261-01] | 2.11 | –
COC(=O)[C@@H]1Cc2c([nH]c3ccccc23)[C@H]2C[C@H](N3CCCCC3)C[C@@H](c3ccccc3F)N21 [NCGC00421326-01] | 5.96 | –
CCN1CCN(Cc2ccc(NC(=O)c3cc(NC(=O)C4=NN(c5ccccc5)C(=O)C4)cc(OC)c3)cc2C(F)(F)F)CC1 [MLS000911574-01] | 8.41 | –
Cc1ccc(C)c(NC(=O)CN(C)C(=O)c2cc3ccccc3o2)c1 [MLS000770584-01] | 13.3 | –
O=S(=O)(c1ccc(F)cc1)N1CCN(/C(S)=N/CC2CCCO2)CC1 (stereo not shown) [MLS001148319-01] | 6.68 | –
O=C(CC[S+](=O)([O-])c1cc(Br)cc2c1N(C(=O)C1CC1)CC2)N1CCN(c2cccc(Cl)c2)CC1 [NCGC00107190-01] | 13.3 | –
CCCc1nn2c(=O)cc(COC(=O)c3cccc(NC(=O)COc4ccccc4C)c3)nc2s1 [NCGC00130805-01] | 13.3 | –
O=C1N=C(NC2CCCC2)C2(CCN(Cc3ccccc3)C2)N1c1cc(F)cc(F)c1 (stereo not shown) [NCGC00374299-01] | 7.5 | –
CCOC(=O)c1c(NC(=O)CSc2nc3ccccc3c(=O)n2-c2ccccc2)sc(C(C)=O)c1C [MLS000335169-01] | 13.3 | –
COc1ccc(S(=O)(=O)N2CCN(/C(S)=N/C3CCCCC3)CC2)cc1 [MLS000690529-01] | 6.68 | –
COc1ccc(NC(=O)Cc2c[nH]c3ncc(-c4cnn(C)c4)cc23)cn1 [NCGC00412250-01] | 12.2 | –
COc1ccc(C2Nc3ccccc3C(=O)N2Cc2ccccc2)cc1COc1ccc(Cl)cc1Cl (stereo not shown) [NCGC00165212-01] | 8.41 | –
CN1CCN(Cc2ccccc2Oc2ccc(C(F)(F)F)cn2)CC1 [NCGC00433787-01] | 0.531 | –
O=C(c1cccs1)N1CCCCCC1CN1CCCC1 (stereo not shown) [NCGC00456696-01] | 10.6 | –
COc1ccc(N2CCN(C(c3cc4ccc(C)cc4nc3O)c3nnnn3C3CCCC3)CC2)cc1 (stereo not shown) [MLS000077379-01] | 6.68 | –
CCOc1cc(C(=O)Nc2ccc3nc(Nc4cccc(Cl)c4)cc(C)c3c2)cc(OCC)c1OCC [NCGC00124408-01] | 1.88 | –
Cc1oc2ccc(O)c(CN3CCN(Cc4ccccc4)CC3)c2c1C(=O)Nc1cccc(Cl)c1C [NCGC00115656-01] | 0.596 | –

Structure (SMILES) | AC50 (read-out: AC50) [µM] | AC50 [µM]
O=c1oc2c(CN3CCOCC3)c(O)ccc2cc1-c1ccccc1 [NCGC00135757-01] | 9.44 | –
N#Cc1nn(-c2c(Cl)cc(C(F)(F)F)cc2Cl)c(N)c1[S+]([O-])C(F)(F)F (stereo not shown) [NCGC00094574-06] | 9.44 | –
Cc1nc(-c2ccccc2)n(CC(=O)Nc2ccc(Cl)cc2)c(=O)c1CCO [NCGC00470932-01] | 16.8 | –
Cc1cc(C)c2oc(=O)cc(CN3CCCCC3)c2c1 [MLS001216359-01] | 13.3 | –
COC1CCN(C(=O)C(C)(C)Oc2nn(CC3CC3)c3ccc(CN4CCCC4)cc23)CC1 [NCGC00419576-01] | 9.44 | –
CCCn1c(=N)c(C(=O)NCc2ccc3c(c2)OCO3)cc2c(=O)n3cccc(C)c3nc21 [MLS001305712-01] | 10.6 | –
CC1CCN(CC2CCCCCN2C(=O)Cc2ccccc2)CC1 (stereo not shown) [NCGC00456721-01] | 9.44 | –
Cc1occc1C(=O)N1CCN(C(c2ccccc2)c2ccccc2)CC1 [MLS000089076-01] | 10.6 | –
CC1(c2ccccn2)Nc2ccccc2-c2nc3ccccc3n21 (stereo not shown) [MLS000039430-01] | 5.31 | –
CCCCCCCn1c(NC(=O)CC)nc2ccccc21 [MLS001042192-01] | 16.8 | –
CC(C)c1ccccc1NC(=O)Cn1cccc1-c1nc(-c2ccccc2)no1 [NCGC00445236-01] | 4.22 | –
Cc1ccc(-n2ncc3c(NCc4ccco4)ncnc32)cc1C [MLS000622044-01] | 15 | –
O=C(c1cccs1)c1cn(CCOc2ccc(Cl)cc2)c2ccccc12 [NCGC00101601-01] | – | 5.96
O=C(Nc1ccc2c(N3CCCCC3)ncnc2c1)c1ccc(F)c(F)c1 [NCGC00425519-01] | 4.73 | –
CCCCCNc1nc2c(-c3ccccc3)nnn2c2ccccc12 [NCGC00111529-01] | 11.9 | –
CC(C)(C)n1nnnc1C(c1cc2cc3c(cc2[nH]c1=O)OCO3)N1CCN(c2ccccc2)CC1 (stereo not shown) [MLS000072810-01] | 7.5 | –
CCOC(=O)c1c(C)[nH]c(C)c1[S+](=O)([O-])N1CCCC(C(=O)N2CCN(c3cccc(C)c3C)CC2)C1 (stereo not shown) [NCGC00138103-01] | 1.33 | –
COc1ccc(CCn2c(=N)c(C(=O)NCCN3CCOCC3)cc3c(=O)n4cccc(C)c4nc32)cc1OC [MLS001146185-01] | 13.3 | –
